From patent US9481676B2, “Azepino[4,5-B]indoles and methods of use” (Medivation Technologies, Inc., priority 2008, dated 2016)

Key:
[1] = biological target: T1, human recombinant adrenergic α1D receptor (Homo sapiens, UniProt P25100); test: Adrenergic alpha1D radioligand binding ([3H]Prozosin); settings: compound at 1 μM; read-out: Adrenergic (1 μM) α1D, percent inhibition of specific binding
T1 construct: expressed in transfected cells; host or cells: HEK-293 cells
T1 sequence (P25100 1-572): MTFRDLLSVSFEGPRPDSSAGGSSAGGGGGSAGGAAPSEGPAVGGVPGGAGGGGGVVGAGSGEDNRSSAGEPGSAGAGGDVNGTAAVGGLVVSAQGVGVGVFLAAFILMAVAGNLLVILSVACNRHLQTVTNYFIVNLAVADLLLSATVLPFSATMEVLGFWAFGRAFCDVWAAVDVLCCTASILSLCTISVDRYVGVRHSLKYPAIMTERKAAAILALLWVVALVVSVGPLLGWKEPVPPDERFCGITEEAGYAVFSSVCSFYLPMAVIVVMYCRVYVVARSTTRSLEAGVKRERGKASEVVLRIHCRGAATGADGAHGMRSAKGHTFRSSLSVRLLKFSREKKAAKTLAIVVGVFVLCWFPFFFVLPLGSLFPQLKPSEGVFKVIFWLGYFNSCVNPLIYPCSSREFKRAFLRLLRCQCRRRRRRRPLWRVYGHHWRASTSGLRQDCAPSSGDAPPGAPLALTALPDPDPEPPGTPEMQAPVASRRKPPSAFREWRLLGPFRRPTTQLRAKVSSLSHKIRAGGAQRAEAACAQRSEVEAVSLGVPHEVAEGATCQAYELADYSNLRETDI
Procedure: To evaluate in radioligand binding assays the activity of compounds of the invention, human recombinant adrenergic α1D receptor expressed in human embryonic kidney (HEK-293) cells (Kenny, B. A. et al. Br. J. Pharmacol. 115(6):981, 1995) in a 50 mM Tris-HCl buffer, pH 7.4, was used. Compounds of invention were incubated with 0.6 nM [^3H]Prozosin for 60 min. at 25° C. Non-specific binding was estimated in the presence of 10 μM phentolamine. Receptor proteins were filtered and washed, the filters were then counted to determine [^3H]Prozosin specifically bound. Compounds were screened at 1 μM or lower, using 1% DMSO as vehicle. Biochemical assay results are presented as the percent inhibition of specific binding in Table 5.

[2] = biological target: T2, human recombinant adrenergic α2A receptor (Homo sapiens, UniProt P08913); test: Adrenergic alpha2A radioligand binding ([3H]MK-912); settings: compound at 1 μM; read-out: Adrenergic (1 μM) α2A, percent inhibition of specific binding
T2 construct: expressed in transfected cells; host or cells: insect Sf9 cells
T2 sequence (P08913 1-465): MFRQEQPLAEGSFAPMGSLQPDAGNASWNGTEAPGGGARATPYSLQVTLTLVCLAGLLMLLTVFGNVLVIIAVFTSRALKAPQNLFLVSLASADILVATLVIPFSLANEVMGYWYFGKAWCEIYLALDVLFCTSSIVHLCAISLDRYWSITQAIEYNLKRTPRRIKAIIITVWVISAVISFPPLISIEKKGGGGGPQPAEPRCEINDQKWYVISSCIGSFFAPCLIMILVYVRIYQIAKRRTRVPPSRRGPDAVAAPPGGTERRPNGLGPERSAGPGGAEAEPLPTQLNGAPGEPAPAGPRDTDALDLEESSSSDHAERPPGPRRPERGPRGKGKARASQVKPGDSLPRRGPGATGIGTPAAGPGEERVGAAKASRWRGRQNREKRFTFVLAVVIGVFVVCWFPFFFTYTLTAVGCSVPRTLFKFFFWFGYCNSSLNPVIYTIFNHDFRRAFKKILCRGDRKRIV
Procedure: To evaluate in radioligand binding assays the activity of compounds of the invention, human recombinant adrenergic α2A receptor expressed in insect Sf9 cells (Uhlen S et al. J Pharmacol Exp Ther. 271:1558, 1994) in a modified Tris-HCl buffer (50 mM Tris-HCl, pH 7.4, 12.5 mM MgCl2, 2 mM EDTA) was used. Compounds of invention were incubated with 1 nM [^3H]MK-912 for 60 min. at 25° C. MK912 is (2S-trans)-1,3,4,5′,6,6′,7,12b-octahydro-1′,3′-dimethyl-spiro[2 h-benzofuro [2,3-a]quinolizine-2,4′ (1′H)-pyrimidin]-2′ (3′H)-one hydrochloride Non-specific binding was estimated in the presence of 10 μM WB-4101 (2-(2,6-Dimethoxyphenoxyethyl)aminomethyl-1,4-benzodioxane hydrochloride). Receptor proteins were filtered and washed, the filters were then counted to determine [^3H]MK-912 specifically bound. Compounds were screened at 1 μM or lower, using 1% DMSO as vehicle. Biochemical assay results are presented as the percent inhibition of specific binding in Table 5.

[3] = biological target: T3, human recombinant serotonin (5-Hydroxytryptamine) 5-HT2A receptor (Homo sapiens, UniProt P28223); test: Serotonin 5-HT2A radioligand binding ([3H]Ketanserin); settings: compound at 1 μM; read-out: Serotonin (1 μM) 5-HT2A, percent inhibition of specific binding
T3 construct: expressed in transfected cells; host or cells: CHO-K1 cells
T3 sequence (P28223 whole entry): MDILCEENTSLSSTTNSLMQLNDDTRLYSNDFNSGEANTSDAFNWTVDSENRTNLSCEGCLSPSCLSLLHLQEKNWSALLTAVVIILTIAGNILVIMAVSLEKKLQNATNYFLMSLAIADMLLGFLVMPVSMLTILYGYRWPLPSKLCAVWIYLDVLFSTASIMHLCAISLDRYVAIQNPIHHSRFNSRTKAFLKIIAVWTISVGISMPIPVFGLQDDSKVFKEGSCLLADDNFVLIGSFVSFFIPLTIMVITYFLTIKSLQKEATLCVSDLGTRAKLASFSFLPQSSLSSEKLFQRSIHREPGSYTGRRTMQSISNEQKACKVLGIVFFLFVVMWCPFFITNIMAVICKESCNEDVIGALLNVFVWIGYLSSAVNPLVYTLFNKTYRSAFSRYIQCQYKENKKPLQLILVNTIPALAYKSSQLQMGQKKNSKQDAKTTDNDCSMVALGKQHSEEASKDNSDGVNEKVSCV
How it was run: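 Percent inhibition of specific [3H]ketanserin (0.5 nM) binding, filtration read-out, with compounds at ≤1 μM (1% DMSO vehicle). Receptor source: recombinant human 5-HT2A in CHO-K1 cells, 50 mM Tris-HCl pH 7.4, 60 min, 25 °C; 1 μM mianserin gives nonspecific binding.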

[4] = biological target: T4, human recombinant serotonin (5-Hydroxytryptamine) 5-HT6 receptor (Homo sapiens, UniProt P50406); test: Serotonin 5-HT6 radioligand binding ([3H]LSD); settings: compound at 1 μM; read-out: Serotonin (1 μM) 5-HT6, percent inhibition of specific binding
T4 construct: expressed in transfected cells; host or cells: human HeLa cells
T4 sequence (P50406 whole entry): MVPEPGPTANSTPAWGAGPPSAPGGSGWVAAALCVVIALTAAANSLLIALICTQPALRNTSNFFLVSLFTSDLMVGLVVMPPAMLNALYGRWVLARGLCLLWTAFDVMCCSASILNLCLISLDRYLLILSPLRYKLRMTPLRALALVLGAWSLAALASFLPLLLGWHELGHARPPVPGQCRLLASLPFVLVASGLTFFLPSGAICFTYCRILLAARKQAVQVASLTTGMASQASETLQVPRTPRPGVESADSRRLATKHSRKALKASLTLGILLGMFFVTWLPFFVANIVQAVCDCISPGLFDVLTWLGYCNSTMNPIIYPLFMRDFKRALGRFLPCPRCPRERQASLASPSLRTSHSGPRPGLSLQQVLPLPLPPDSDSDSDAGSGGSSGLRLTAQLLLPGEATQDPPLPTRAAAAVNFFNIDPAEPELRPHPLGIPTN
How it was run: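 Human recombinant 5-HT6 receptor from HeLa cells incubated with 1.5 nM [3H]LSD for 120 min at 37° C in 50 mM Tris-HCl pH 7.4, 150 mM NaCl, 2 mM ascorbic acid, 0.001% BSA. Nonspecific binding defined with 5 μM serotonin; bound ligand counted after filtration.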

SMILES	inhibition at 1 µM [1]	inhibition at 1 µM [2]	inhibition at 1 µM [3]	inhibition at 1 µM [4]
CN1CCc2c(n(CCc3ccc(C(=O)O)nc3)c3ccc(Cl)cc23)CC1 [Compound No. 21, 5-(2-(9-chloro-2,3,4,5-tetrahydro-3-methylazepino[4,5-b]indol-6(1H)-yl)ethyl)pyridine-2-carboxylic acid]	17%	-7%	8%	30%
Cc1ccc2c(c1)c1c(n2CC(=O)NC2CCCCC2)CCN(C)CC1 [Compound No. 22, N-cyclohexyl-2-(2,3,4,5-tetrahydro-3,9-dimethylazepino[4,5-b]indol-6(1H)-yl)acetamide]	1%	-14%	-2%	-12%
Cc1ccc2c(c1)c1c(n2CC(O)c2ccc(C)nc2)CCN(C)CC1 (stereo not drawn) [Compound No. 23, 2-(2,3,4,5-tetrahydro-3,9-dimethylazepino[4,5-b]indol-6(1H)-yl)-1-(6-methylpyridin-3-yl)ethanol]	17%	42%	67%	17%
CN1CCc2c(n(CC(O)c3ccccc3)c3ccc(Cl)cc23)CC1 (stereo not drawn) [Compound No. 24, 2-(9-chloro-2,3,4,5-tetrahydro-3-methylazepino[4,5-b]indol-6(1H)-yl)-1-phenylethanol]	85%	100%	98%	99%
Cc1ccc2c(c1)c1c(n2CC(O)c2ccccc2)CCN(C)CC1 (stereo not drawn) [Compound No. 25, 2-(2,3,4,5-tetrahydro-3,9-dimethylazepino[4,5-b]indol-6(1H)-yl)-1-phenylethanol]	96%	100%	97%	93%
Cc1ccc(C(O)Cn2c3c(c4cc(Cl)ccc42)CCN(C)CC3)cc1 (stereo not drawn) [Compound No. 26, 2-(9-chloro-2,3,4,5-tetrahydro-3-methylazepino[4,5-b]indol-6(1H)-yl)-1-p-tolylethanol]	94%	99%	100%	87%
Cc1ccc(C(O)Cn2c3c(c4cc(C)ccc42)CCN(C)CC3)cc1 (stereo not drawn) [Compound No. 27, 2-(2,3,4,5-tetrahydro-3,9-dimethylazepino[4,5-b]indol-6(1H)-yl)-1-p-tolylethanol]	95%	98%	99%	92%
Cc1ccc2c(c1)c1c(n2CCc2ccc(Cl)cc2)CCN(C)CC1 [Compound No. 28, 6-(4-chlorophenethyl)-1,2,3,4,5,6-hexahydro-3,9-dimethylazepino[4,5-b]indole]	94%	96%	100%	95%
CN1CCc2c(n(CCc3ccccc3Cl)c3ccc(Cl)cc23)CC1 [Compound No. 29, 6-(2-chlorophenethyl)-9-chloro-1,2,3,4,5,6-hexahydro-3-methylazepino[4,5-b]indole]	71%	101%	100%	103%
CN1CCc2c(n(CCc3ccc(Cl)cc3)c3ccc(Cl)cc23)CC1 [Compound No. 30, 6-(4-chlorophenethyl)-9-chloro-1,2,3,4,5,6-hexahydro-3-methylazepino[4,5-b]indole]	89%	99%	100%	86%
CC(C)NC(=O)Cn1c2c(c3cc(Cl)ccc31)CCN(C)CC2 [Compound No. 31, 2-(9-chloro-2,3,4,5-tetrahydro-3-methylazepino[4,5-b]indol-6(1H)-yl)-N-isopropylacetamide]	6%	31%	43%	2%
Cc1ccc2c(c1)c1c(n2CC(=O)N2CCCCC2)CCN(C)CC1 [Compound No. 32, 2-(2,3,4,5-tetrahydro-3,9-dimethylazepino[4,5-b]indol-6(1H)-yl)-1-(piperidin-1-yl)ethanone]	4%	39%	60%	4%
C/C(=C\n1c2c(c3cc(C)ccc31)CCN(C)CC2)c1ccc(Cl)cc1 [Compound No. 33, 6-((E)-2-(4-chlorophenyl)prop-1-enyl)-1,2,3,4,5,6-hexahydro-3,9-dimethylazepino[4,5-b]indole]	99%	97%	100%	98%
C/C(=C\n1c2c(c3cc(C)ccc31)CCN(C)CC2)c1ccc(F)cc1 [Compound No. 34, 6-((E)-2-(4-fluorophenyl)prop-1-enyl)-1,2,3,4,5,6-hexahydro-3,9-dimethylazepino[4,5-b]indole]	100%	94%	98%	103%
C=C(Cn1c2c(c3cc(Cl)ccc31)CCN(C)CC2)c1ccc(Cl)cc1 [Compound No. 35, 9-chloro-6-(2-(4-chlorophenyl)allyl)-3-methyl-1,2,3,4,5,6-hexahydroazepino[4,5-b]indole]	96%	93%	99%	102%
C/C(=C\n1c2c(c3cc(Cl)ccc31)CCN(C)CC2)c1ccc(Cl)cc1 [Compound No. 36, 9-chloro-6-((E)-2-(4-chlorophenyl)prop-1-enyl)-1,2,3,4,5,6-hexahydro-3-methylazepino[4,5-b]indole]	95%	96%	97%	99%
CN1CCc2c(n(CC(=O)Nc3ccc(F)cc3)c3ccc(Cl)cc23)CC1 [Compound No. 37, 2-(9-chloro-2,3,4,5-tetrahydro-3-methylazepino[4,5-b]indol-6(1H)-yl)-N-(4-fluorophenyl) acetamide]	14%	68%	91%	12%
Cc1ccc2c(c1)c1c(n2CC(=O)N2CCOCC2)CCN(C)CC1 [Compound No. 38, 2-(2,3,4,5-tetrahydro-3,9-dimethylazepino[4,5-b]indol-6(1H)-yl)-1-morpholinoethanone]	38%	77%	96%	41%
